The values below come from PubChem BioAssay (NCI).

What all share (experiment): DTP human tumour cell line panel, 48 h
Assay [1] has as its system 786-0 renal.
The subject of assay [2] is NCI-H460 lung.
Assay [3] has as its system M14 melanoma.
Assay [4] relates to IGROV1 ovarian.
Assay [5] has as its system MOLT-4 leukemia.
Assay [6] has as its system OVCAR-8 ovarian.
Assay [7] has as its system NCI-H522 lung.
For assay [8], the system named is HT29 colon.
Assay [9] deals with LOX IMVI melanoma.
The subject of assay [10] is MDA-MB-435.

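1) Cells in 96-well plates. 2) Compound, 48 h, 5 concentrations. 3) Linear interpolation between surrounding doses. 4) Unreached endpoint = highest concentration. GI50: concentration for 50% inhibition of growth. TGI is the concentration that stops growth completely.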 Where only a bound is given, the exact number is not on record here.

As a reminder, the GI50 is the concentration at which growth is held to half of that of the control. As usually defined, the TGI is the concentration at which net growth stops.

Regarding `NC1=NC(c2ccc(Cl)cc2)C2=C(N1)/C(=C/c1ccc(Cl)cc1)CCC2` (configuration not stated), the GI50 in [1] was 9.42 µM; in assay [2], 12.2 µM; in assay [3], 2.77 µM; in [4], 15 µM; in assay [5], 9.47 µM; in assay [6], 4.24 µM. For the same molecule, the GI50 in assay [7] was 15.7 µM; in assay [8], 3.14 µM; in assay [9], 1.85 µM; in [10] it was 2.87 µM. The TGI in [1] was 29.7 µM; in assay [2], 29.8 µM; in assay [3], 11.6 µM; in assay [4] it was > 64.4 µM; in assay [5], 57 µM; in [6], > 32.4 µM. Moreover, the total growth inhibition concentration (TGI) in [7] is 36.9 µM; in assay [8], 9.78 µM; in assay [9], 3.64 µM; in assay [10] it was 12 µM.

For the molecule `COc1cccc2c1C(=O)c1c(O)c3c(c(O)c1C2=O)C[C@@](O)(C(=O)CO)C[C@@H]3OC1C[C@H](N)[C@H](O)[C@H](C)O1` (some centres not stated), the GI50 in assay [1] was 0.0324 µM; in assay [2], 0.005 µM; in [3], 0.0846 µM; in assay [4], 0.0901 µM; in [6], 0.067 µM; in [7], 0.0334 µM. In addition, the GI50 in assay [8] was 0.0958 µM; in assay [9], 0.0178 µM; in assay [10] it was 0.109 µM. Further, the concentration for total growth inhibition (TGI) in assay [1] is 1.19 µM; in assay [2], > 50 µM; in assay [3], 0.404 µM; in assay [4], 8.58 µM; in [5], 0.105 µM; in assay [6], > 16.2 µM. Moreover, the TGI in [7] was 0.317 µM; in [9], 0.181 µM; in assay [10], 0.574 µM.

For `COc1cc(/C=C2\CN(C)C/C(=C\c3cc(CN4CCCCC4)c(O)c(OC)c3)C2=O)cc(CN2CCCCC2)c1O`, the GI50 in assay [1] was 3.92 µM; in assay [2], 2.18 µM; in assay [3], 3.02 µM; in [4], 3.36 µM; in [5], 2.95 µM; in assay [6] it was 3.12 µM. In addition, the GI50 is 2.68 µM in assay [7], 2.43 µM in [8], 2.34 µM in assay [9] and 3.6 µM in assay [10]. Moreover, the TGI in [1] is 14.5 µM; in assay [2] it was 5.13 µM; in assay [3] it was 10.8 µM; in [4] it was 13.6 µM; in [5] it was 10.7 µM; in [6], > 100 µM. The total growth inhibition concentration (TGI) in assay [7] worked out at 11.9 µM; in assay [8] it was 6.42 µM; in [9] it was 6.19 µM; in assay [10], 13.2 µM.

Take `CCCCCCCCCCCCSC(=N)N`: the GI50 in assay [1] is 15.3 µM; in [2], 3.42 µM; in assay [3], 5.16 µM; in assay [4] it was 2.77 µM; in assay [5], 2.46 µM; in assay [6] it was 5.77 µM. In addition, the GI50 in assay [7] was 5.21 µM; in [8], 2.2 µM; in [9], 3.58 µM; in assay [10], 3.9 µM. In addition, the TGI in assay [1] turned out to be 33.9 µM; in assay [2], 13.4 µM; in [3] it was 17.2 µM; in assay [5], 5.85 µM; in assay [6], 23.4 µM; in [7], 21.6 µM. For the same molecule, the TGI in [8] worked out at 5.73 µM; in assay [9], 13.3 µM; in [10], 15.3 µM.

For `O=C(N/N=C/c1ccc([N+](=O)[O-])cc1)c1ccc2nc(-c3ccc(Cl)cc3)[nH]c2c1`, the GI50 in assay [1] is 3.92 µM; in assay [2] it was 2.1 µM; in [3], 2.73 µM; in assay [4] it was 3.04 µM; in [5] it was 0.421 µM; in assay [6], 2.89 µM. Besides, the GI50 in assay [7] is 3.05 µM; in [8] it was 3.02 µM; in assay [9], 1.34 µM; in [10], 3.57 µM. For the same molecule, the concentration for total growth inhibition (TGI) in assay [1] came to 15.7 µM; in assay [2] it was 4.49 µM; in [3] it was 9.13 µM; in assay [4], 11.4 µM; in [5], 3.85 µM; in assay [6] it was 13.7 µM. The TGI is 11.7 µM in assay [7], > 100 µM in assay [8], 3.22 µM in assay [9] and 12.2 µM in [10].

Consider `N#CC1=C(N)NC(=O)NC12Nc1ccccc1S2` (configuration not stated), for which the GI50 in [1] is 19.4 µM; in assay [2], 23.6 µM; in assay [3], 19.7 µM; in assay [4], > 45.7 µM; in assay [5], > 48.3 µM; in assay [6], 6.07 µM. The GI50 was 28.2 µM in assay [7], 36.7 µM in [8], 22.9 µM in [9] and 31.7 µM in assay [10]. Besides, the TGI in assay [1] is 49.6 µM; in assay [2] it was > 70.9 µM; in [3] it was 42.5 µM; in assay [4], > 74.8 µM; in assay [5] it was > 100 µM; in assay [6], > 37.8 µM. The concentration for total growth inhibition (TGI) in [7] was > 71.4 µM; in assay [8] it was > 100 µM; in [9] it was > 59.2 µM; in assay [10], > 88.4 µM.
